Literature values in patent US8183241B2, “2-oxo-1-pyrrolidine derivatives” (UCB Pharma, S.A., priority 2005, dated 2012).

Conditions: Eur. J. Pharmacol. (1992), 222, 193-203

Structure (SMILES)	activity in the treatment of epilepsy
CC[C@@H](C(N)=O)N1CCCC1=O [Levetiracetam, (S)-α-ethyl-2-oxo-1-pyrrolidine acetamide]	effective in the treatment of epilepsy
CC[C@H](C(N)=O)N1CCCC1=O [(R)-α-ethyl-2-oxo-1-pyrrolidine acetamide]	completely lacks activity
